This is an account of results in US20210060006A1, “COMPOSITIONS AND METHODS FOR TREATING GLIOBLASTOMA BY MODULATING A MGMT ENHANCER” (The Trustees of Columbia University in the City of New York, priority 2018, published 2021).

The test system of data set [1] is SKMG3 parental cells and enhancer deletion clones. Nature of the data set: Clonogenic assay of TMZ sensitivity. It is filed as cell-based, human. Conditions: for pIC50: Homo sapiens. Here is the method:
Cell viability was determined using clonogenic assay.
FIG. 5F is a summary of TMZ IC50 in SKMG3 clones with or without O6BG pre-treatment.
Clonogenic assays were performed to assess the effect of disrupted enhancer on TMZ sensitivity. Briefly, SKMG3 parental cells and enhancer deletion clones were plated in 6 wells plates (250 cells/well), treated with graded concentration of TMZ in presence or absence of O6BG and were cultured for 2 weeks. Colonies were fixed and stained with crystal violet (0.005% (w/v) Crystal violet, 25% (v/v) Methanol). Colonies with >50 cells were manually counted, IC50 calculated by GraphPad Prism 7 using multiparametric nonlinear regression model.

Data set [2] deals with MGMT. Conditions: combination with TMZ compared to TMZ alone; cited from earlier work.
The subject of data set [3] is MGMT. Conditions: SAHA in combination with TMZ; cited from earlier work.

Structures are written as SMILES. pIC50: −log10 of the molar value.

Turning to `Nc1nc(OCc2ccccc2)c2nc[nH]c2n1` [O6BG, O6-benzylguanine], the “TMZ sensitizing effect of enhancer deletion” value in data set [1] (group pre-treated with 10 μM O6BG 1 h prior to temozolomide) was “not observed”. Also, in the data set with MGMT [2], the clinical benefit result is on record as “no clinical benefit”, the hematologic toxicities entry is “enhanced hematologic toxicities” and the therapeutic window entry is recorded as “reduced therapeutic window”.

`O=C(CCCCCCC(=O)Nc1ccccc1)NO` [SAHA]: the MGMT expression entry in the data set on MGMT [3] is on record as “promotes elevation of MGMT expression”.

On to `Cn1nnc2c(C(N)=O)ncn2c1=O` [TMZ, temozolomide], for which the pIC50 in data set [1] (K-M enhancer deleted (3.3 kb) SKMG3 clones) was over 5.00; in data set [1] (parental SKMG3 lines and wild type control clone), under 4.00.
